Earlier results on 1 compound are cited in patent US6962907B2, “Neurologically-active compounds” (The University of Sydney, priority 2001, dated 2005).

Molecules are shown by their SMILES.

One series has as its target GABAC receptor (Homo sapiens, UniProt P24046). As to conditions: cited from earlier work.
The subject of the next series is GABAA receptors. As to conditions: TPMPA 300 μM; cited from earlier work.
The subject of the next series is GABAB receptor. The settings on record: dose of 500 μM; cited from earlier work.

GABAC receptor, sequence (P24046 22-479): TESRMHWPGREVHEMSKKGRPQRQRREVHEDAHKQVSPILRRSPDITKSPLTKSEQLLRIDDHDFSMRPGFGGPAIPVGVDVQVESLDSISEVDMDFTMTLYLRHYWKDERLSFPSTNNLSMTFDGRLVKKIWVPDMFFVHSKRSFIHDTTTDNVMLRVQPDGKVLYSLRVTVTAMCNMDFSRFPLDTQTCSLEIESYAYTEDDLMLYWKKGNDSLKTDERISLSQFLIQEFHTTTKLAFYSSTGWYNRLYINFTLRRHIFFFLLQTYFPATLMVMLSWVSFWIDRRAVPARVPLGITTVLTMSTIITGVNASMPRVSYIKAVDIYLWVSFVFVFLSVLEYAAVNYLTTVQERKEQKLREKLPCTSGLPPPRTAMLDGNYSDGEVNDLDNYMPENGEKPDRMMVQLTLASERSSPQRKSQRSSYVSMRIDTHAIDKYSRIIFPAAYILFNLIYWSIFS

In the case of `CP(=O)(O)C1=CCNCC1` [TPMPA], on GABAC receptor, the “selectivity for GABAC than GABAA receptors” value was 100 times and the “selectivity for GABAC than GABAB receptors” value is reported as 500 times. Further, in the series with GABAA receptors, the “reduction of the current produced by GABA (10 μM)” value was 67%. The “activation of the GABAB receptor” value with GABAB receptor is “about 30%”.
